Tests used:
[1] = target: T1, Disintegrin and metalloproteinase domain-containing protein 10 (Homo sapiens, UniProt O14672); assay: In vitro inhibition of A disintegrin and metalloprotease domain 10 (ADAM10)
T1 sequence (O14672 whole entry): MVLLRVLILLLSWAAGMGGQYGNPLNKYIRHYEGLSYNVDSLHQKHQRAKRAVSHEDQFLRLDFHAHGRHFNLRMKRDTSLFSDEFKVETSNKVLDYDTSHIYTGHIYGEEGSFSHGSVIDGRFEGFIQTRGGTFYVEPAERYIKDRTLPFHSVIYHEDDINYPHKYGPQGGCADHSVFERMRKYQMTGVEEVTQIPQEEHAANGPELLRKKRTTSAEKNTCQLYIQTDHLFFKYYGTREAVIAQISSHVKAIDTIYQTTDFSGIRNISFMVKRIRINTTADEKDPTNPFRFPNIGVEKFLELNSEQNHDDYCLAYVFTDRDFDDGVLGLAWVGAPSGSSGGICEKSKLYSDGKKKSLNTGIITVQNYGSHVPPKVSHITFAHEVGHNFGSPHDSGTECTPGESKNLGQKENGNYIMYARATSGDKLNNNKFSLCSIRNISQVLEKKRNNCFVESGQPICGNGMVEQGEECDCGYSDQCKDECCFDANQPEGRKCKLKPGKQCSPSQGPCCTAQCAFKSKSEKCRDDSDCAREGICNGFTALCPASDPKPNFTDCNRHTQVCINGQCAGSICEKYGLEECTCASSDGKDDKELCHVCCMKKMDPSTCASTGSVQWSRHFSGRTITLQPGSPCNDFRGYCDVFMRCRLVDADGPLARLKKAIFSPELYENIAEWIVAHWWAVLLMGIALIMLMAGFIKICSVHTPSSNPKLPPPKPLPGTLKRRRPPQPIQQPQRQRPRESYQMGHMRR

[2] = target: T2, Disintegrin and metalloproteinase domain-containing protein 9 (Homo sapiens, UniProt Q13443); assay: In vitro inhibition of A disintegrin and metalloprotease domain 9 (ADAM9)
T2 sequence (Q13443 whole entry): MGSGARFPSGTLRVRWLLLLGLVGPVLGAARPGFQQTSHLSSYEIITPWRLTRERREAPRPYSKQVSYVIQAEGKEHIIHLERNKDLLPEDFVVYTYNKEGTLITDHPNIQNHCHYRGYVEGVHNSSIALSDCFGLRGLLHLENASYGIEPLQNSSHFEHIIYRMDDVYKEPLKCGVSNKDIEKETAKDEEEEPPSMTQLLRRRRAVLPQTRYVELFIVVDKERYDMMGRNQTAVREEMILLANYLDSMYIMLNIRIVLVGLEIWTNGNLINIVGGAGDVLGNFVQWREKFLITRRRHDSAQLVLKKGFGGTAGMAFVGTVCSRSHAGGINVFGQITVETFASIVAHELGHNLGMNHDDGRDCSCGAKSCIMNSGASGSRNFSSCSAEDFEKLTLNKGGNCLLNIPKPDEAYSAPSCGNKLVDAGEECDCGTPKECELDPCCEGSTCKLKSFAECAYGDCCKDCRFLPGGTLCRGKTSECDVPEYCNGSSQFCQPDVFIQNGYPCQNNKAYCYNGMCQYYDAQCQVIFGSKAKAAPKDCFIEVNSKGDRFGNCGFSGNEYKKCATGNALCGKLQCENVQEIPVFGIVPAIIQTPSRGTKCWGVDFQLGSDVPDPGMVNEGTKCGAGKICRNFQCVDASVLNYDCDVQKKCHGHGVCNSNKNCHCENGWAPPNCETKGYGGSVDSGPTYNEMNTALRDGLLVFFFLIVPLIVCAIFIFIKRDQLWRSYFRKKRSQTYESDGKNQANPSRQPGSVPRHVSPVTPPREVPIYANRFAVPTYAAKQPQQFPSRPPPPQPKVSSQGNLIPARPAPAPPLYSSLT

[3] = target: T3, Disintegrin and metalloproteinase domain-containing protein 12 (Homo sapiens, UniProt O43184); assay: Inhibition of A disintegrin and metalloprotease domain 12 (ADAM12) binding in cell based assay
T3 sequence (O43184 whole entry): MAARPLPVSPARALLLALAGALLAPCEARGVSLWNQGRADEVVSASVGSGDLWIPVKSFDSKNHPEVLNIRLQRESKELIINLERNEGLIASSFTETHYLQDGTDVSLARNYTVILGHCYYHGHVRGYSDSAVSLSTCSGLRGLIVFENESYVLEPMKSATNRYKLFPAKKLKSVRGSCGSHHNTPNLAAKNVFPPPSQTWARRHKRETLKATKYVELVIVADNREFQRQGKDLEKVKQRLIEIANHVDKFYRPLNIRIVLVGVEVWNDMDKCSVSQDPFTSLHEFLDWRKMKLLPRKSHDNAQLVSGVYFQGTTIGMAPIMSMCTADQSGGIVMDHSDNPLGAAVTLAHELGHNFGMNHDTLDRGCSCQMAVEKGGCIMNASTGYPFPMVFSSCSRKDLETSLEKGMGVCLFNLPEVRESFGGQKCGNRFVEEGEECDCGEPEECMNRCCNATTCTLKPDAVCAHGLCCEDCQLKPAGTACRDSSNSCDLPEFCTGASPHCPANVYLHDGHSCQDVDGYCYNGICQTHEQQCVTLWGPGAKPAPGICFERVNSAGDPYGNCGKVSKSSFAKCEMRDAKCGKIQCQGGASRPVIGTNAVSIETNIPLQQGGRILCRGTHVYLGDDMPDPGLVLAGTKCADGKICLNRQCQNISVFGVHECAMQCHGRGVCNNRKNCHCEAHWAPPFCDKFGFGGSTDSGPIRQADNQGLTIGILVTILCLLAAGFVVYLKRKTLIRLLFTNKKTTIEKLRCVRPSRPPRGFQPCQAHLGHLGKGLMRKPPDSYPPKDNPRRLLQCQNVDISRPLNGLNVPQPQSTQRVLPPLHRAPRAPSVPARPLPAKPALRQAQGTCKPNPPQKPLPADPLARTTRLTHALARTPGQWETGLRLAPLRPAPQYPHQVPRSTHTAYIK

[4] = target: Disintegrin and metalloproteinase domain-containing protein 17 (Homo sapiens, UniProt P78536); assay: In vitro inhibition of A disintegrin and metalloprotease domain 17 (ADAM17, TACE)
Sequence of Disintegrin and metalloproteinase domain-containing protein 17 (P78536 whole entry, the tested form may be a part): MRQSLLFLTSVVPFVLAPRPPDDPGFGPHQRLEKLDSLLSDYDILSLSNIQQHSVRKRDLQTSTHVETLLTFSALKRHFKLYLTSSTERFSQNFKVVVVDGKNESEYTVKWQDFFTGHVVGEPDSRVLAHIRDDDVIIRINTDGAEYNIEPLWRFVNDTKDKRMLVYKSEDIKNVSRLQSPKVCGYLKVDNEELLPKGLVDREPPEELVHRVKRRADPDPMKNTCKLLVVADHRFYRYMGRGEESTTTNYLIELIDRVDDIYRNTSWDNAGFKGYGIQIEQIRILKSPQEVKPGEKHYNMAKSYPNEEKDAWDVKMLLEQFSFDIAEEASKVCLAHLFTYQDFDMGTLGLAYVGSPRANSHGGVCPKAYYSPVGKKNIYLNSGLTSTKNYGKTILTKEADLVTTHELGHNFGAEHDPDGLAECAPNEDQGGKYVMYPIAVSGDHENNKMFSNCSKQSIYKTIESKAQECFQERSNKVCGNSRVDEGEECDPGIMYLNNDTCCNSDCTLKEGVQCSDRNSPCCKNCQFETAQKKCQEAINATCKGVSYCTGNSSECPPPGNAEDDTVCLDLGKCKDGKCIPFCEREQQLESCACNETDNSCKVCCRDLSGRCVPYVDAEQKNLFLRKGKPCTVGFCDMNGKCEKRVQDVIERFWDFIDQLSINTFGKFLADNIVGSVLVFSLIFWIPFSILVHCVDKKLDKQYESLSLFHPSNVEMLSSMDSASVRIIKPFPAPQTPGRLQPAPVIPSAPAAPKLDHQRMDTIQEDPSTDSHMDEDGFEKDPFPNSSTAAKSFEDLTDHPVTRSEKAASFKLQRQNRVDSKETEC

SMILES | IC50 [1] [nM] | IC50 [2] [nM] | IC50 [3] [nM] | IC50 [4] [nM]
CNC(=O)[C@H](Cc1c[nH]c2ccccc12)NC(=O)[C@@H](CC(=O)NO)CC(C)C [ILOMASTAT] | 8.1 | 1 | 5.93 | 7.5
CC(NC(=O)/C(=C\c1ccc(Br)cc1)NC(=O)c1ccc(Br)o1)C(=O)O (stereo unspecified) | – | – | 24.8 | –
CC(C)C(NC(=O)/C(=C\c1ccccc1F)NC(=O)c1ccccc1)C(=O)O (stereo unspecified) | > 10500 | – | 40.5 | –

Next, values leading:

IC50 [1] [nM] | IC50 [2] [nM] | IC50 [3] [nM] | IC50 [4] [nM] | SMILES
> 10500 | – | 16.7 | – | O=C(O)CNC(=O)/C(=C\c1cccc(Br)c1)NC(=O)c1ccco1
10500 | – | 42.3 | – | CC(NC(=O)/C(=C\c1ccco1)NC(=O)c1ccco1)C(=O)O (stereo unspecified)

Source: ChEMBL document CHEMBL1137109, “Structure-based virtual screening and biological evaluation of potent and selective ADAM12 inhibitors” (Bioorg Med Chem Lett, 2004)
